{
  "source": "ChEMBL document CHEMBL5260847",
  "about": "“Current scenario of indole derivatives with potential anti-drug-resistant cancer activity” (Eur J Med Chem, 2020)",
  "type_in_all_cases": "functional, cell-based",
  "key": {"HCT-116": {"test_system": "HCT-116", "test": "Antiproliferative activity against human HCT-116"}, "HeLa": {"test_system": "HeLa", "test": "Anticancer activity against human HeLa cells assessed as inhibition of cell growth"}, "HT-29 [1]": {"test_system": "HT-29", "test": "Antiproliferative activity against human HT-29 cells assessed as reduction in cell viability incubated for 72 hrs by MTT assay", "settings": "HT-29, 72 h"}, "A549 [2]": {"test_system": "A549", "test": "Antiproliferative activity against human A549 cells assessed as reduction in cell viability after 48 hrs by CellTiter-Blue assay", "settings": "A549, 48 h"}, "H69AR [3]": {"test_system": "H69AR", "test": "Antiproliferative activity against multi-drug resistant human NCI-H69AR assessed as reduction in cell viability"}, "HT-29 [4]": {"test_system": "HT-29", "test": "Antiproliferative activity against human HT-29 cells assessed as reduction in cell viability celltiter-Glo assay"}, "ZR-75-1 [5]": {"test_system": "ZR-75-1", "test": "Antiproliferative activity against multi-drug resistant human ZR-75-1 cells assessed as reduction in cell viability"}, "H69AR [6]": {"test_system": "H69AR", "test": "Antiproliferative activity against multidrug resistant human NCI-H69AR assessed as inhibition of cell proliferation by MTT assay"}, "MCF7": {"test_system": "MCF7", "test": "Antiproliferative activity against Doxorubicin resistant human MCF7 cells assessed as reduction in cell viability"}, "ZR-75-1 [7]": {"test_system": "ZR-75-1", "test": "Antiproliferative activity against human ZR-75-1 cells assessed as reduction in cell viability celltiter-Glo assay"}, "A549 [8]": {"test_system": "A549", "test": "Antiproliferative activity against human Non-small-cell lung cancer A549 cells assessed as reduction in cell viability incubated for 72 hrs by MTT assay", "settings": "A549, 72 h"}},
  "data": [
    {"smiles": "O=C1/C(=N\\O)c2ccccc2N1CCOCCN1C(=O)/C(=N/O)c2ccccc21", "values": [
      {"measurement": "IC50", "setting": "HCT-116", "result": 6.23, "unit": "µM"},
      {"measurement": "IC50", "setting": "HeLa", "result": 6.23, "unit": "µM"}
    ]},
    {"smiles": "COc1ccc2c(c1)/C(=N/NC(=O)c1cc3cc(OC)ccc3[nH]1)C(=O)N2Cc1ccccc1", "values": [
      {"measurement": "IC50", "setting": "HT-29 [1]", "result": 2.94, "unit": "µM"},
      {"measurement": "IC50", "setting": "A549 [2]", "result": 0.54, "unit": "µM"}
    ]},
    {"smiles": "CCN(CC)CCNC(=O)c1c(C)[nH]c(/C=C2\\C(=O)Nc3ccc(F)cc32)c1C", "note": "[SUNITINIB]", "values": [
      {"measurement": "IC50", "setting": "H69AR [3]", "result": 5.8, "unit": "µM"},
      {"measurement": "IC50", "setting": "HT-29 [4]", "result": 10.1, "unit": "µM"},
      {"measurement": "IC50", "setting": "ZR-75-1 [5]", "result": 18.9, "unit": "µM"},
      {"measurement": "IC50", "setting": "H69AR [6]", "result": 5.8, "unit": "µM"},
      {"measurement": "IC50", "setting": "MCF7", "result": "> 100", "unit": "µM"},
      {"measurement": "IC50", "setting": "ZR-75-1 [7]", "result": 5.87, "unit": "µM"},
      {"measurement": "IC50", "setting": "A549 [8]", "result": 3.06, "unit": "µM"},
      {"measurement": "IC50", "setting": "A549 [2]", "result": 10.1, "unit": "µM"}
    ]}
  ]
}
